Source: the supplement of paper PMC11208160

Assay: recombinant barcode read abundance after kanamycin selection (control-corrected) (log10(CPM+1)); higher = more efficient recombination; sequences stand for … in AGTGCAGAGAAAATCGGCCAGTTTTCTCTGCCTGCAGTCCGCATGCCGT…AGATTTATGCAGCGGACTGCCTTTCTCCCAAAGTGATAAACCGGACAGTATCATGGACCGGTTTTCCCGGTAATCCGTATTTGCAAGGTTGGTTTCACT; site = the 11-nt target
In short: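 Pooled E. coli screen pairing targets with IS621 bridge RNA target-binding loops. Each oligo (promoter, target, barcode, J23119-driven first 104 bridge RNA bases) was Gibson-cloned into a vector with the remaining 73 bp and T7-inducible recombinase, then co-electroporated with a donor plasmid. Two replicates each were plated on chloramphenicol/ampicillin LB agar (control) or chloramphenicol/ampicillin/kanamycin with 0.1 mM IPTG. Recombination efficiency is recombinant-junction barcode counts as CPM, averaged, control-corrected, reported as log10(CPM+1).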
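Further: IS621 recombinase and bridge RNA in Escherichia coli cells.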

Sequence	recombinant barcode read abundance (log10)
GCACTCCCTTGGGTTCTAACCTGTTGCCT (site GCGCTCCCTAG)	0.199
GCACTCCCTTGGGTTCTAACCTGTTGCCT (site GCTCTCCCTAG)	0.831
GCAGAGTCTTGGGTTCTAACCTGTTGCCT (site GAAGAGTCTAG)	0.201
GCAGAGTCTTGGGTTCTAACCTGTTGCCT (site GCAGAGTCTAG)	2.1
GCAGAGTCTTGGGTTCTAACCTGTTGCCT (site GGAGAGTCTAG)	0.0924
GCAGAGTCTTGGGTTCTAACCTGTTGCCT (site GTAGAGTCTAG)	1.06
GCAGGGACTTGGGTTCTAACCTGTTGCCT (site GAAGGGACTAG)	0.56
GCAGGGACTTGGGTTCTAACCTGTTGCCT (site GCAGGGACTAG)	1.9
GCAGGGACTTGGGTTCTAACCTGTTGCCT (site GGAGGGACTAG)	0.313
GCAGGGACTTGGGTTCTAACCTGTTGCCT (site GTAGGGACTAG)	1.02
GCAGGTACTTGGGTTCTAACCTGTTGCCT (site ACAGGTACTAG)	0.508
GCAGGTACTTGGGTTCTAACCTGTTGCCT (site CCAGGTACTAG)	0.401
GCAGGTACTTGGGTTCTAACCTGTTGCCT (site GCAGGTACTAG)	1.17
GCAGGTACTTGGGTTCTAACCTGTTGCCT (site TCAGGTACTAG)	0.466
GCAGGTGCTTGGGTTCTAACCTGTTGCTT (site ATTTCGACTCC)	0.0721
GCAGGTGCTTGGGTTCTAACCTGTTGCTT (site GCAGGTGCTAA)	1.75
GCATACACTTGGGTTCTAACCTGTTGCCA (site GCATACACTTG)	1.48
GCATACACTTGGGTTCTAACCTGTTGCCA (site TGCAGGGCTCC)	0.0903
GCATCTACTTGGGTTCTAACCTGTTGCTA (site CATAACGCTAG)	0.185
GCATCTACTTGGGTTCTAACCTGTTGCTA (site GCATCTACTTA)	0.0861
GCCAAACCTTGGGTTCTAACCTGTTGCTA (site GCCAAACCTTA)	0.0929
GCCAAACCTTGGGTTCTAACCTGTTGCTA (site GTCAAGCCTTA)	0.176

Sequence	recombinant barcode read abundance (log10)
GCCAGACCTTGGGTTCTAACCTGTTGCCT (site GCCAAACCTAG)	0.0596
GCCAGACCTTGGGTTCTAACCTGTTGCCT (site GCCACACCTAG)	0.0708
GCCAGACCTTGGGTTCTAACCTGTTGCCT (site GCCAGACCTAG)	0.373
GCCAGACCTTGGGTTCTAACCTGTTGCCT (site GCCATACCTAG)	0.112
GCCAGCTCTTGGGTTCTAACCTGTTGCTG (site CAATTTCCTAT)	0.169
GCCAGCTCTTGGGTTCTAACCTGTTGCTG (site GCCAGCTCTCA)	0.581
GCCATAACTTGGGTTCTAACCTGTTGCCT (site GCCATAACTAG)	0.0347
GCCATAACTTGGGTTCTAACCTGTTGCCT (site GCCATCACTAG)	0.0218
GCCATAACTTGGGTTCTAACCTGTTGCCT (site GCCATGACTAG)	0.256
GCCATAACTTGGGTTCTAACCTGTTGCCT (site GCCATTACTAG)	0.191
GCCCGAACTTGGGTTCTAACCTGTTGCCT (site GCACGAACTAG)	0.141
GCCCGAACTTGGGTTCTAACCTGTTGCCT (site GCCCGAACTAG)	0.998
GCCCGAACTTGGGTTCTAACCTGTTGCCT (site GCGCGAACTAG)	0.0267
GCCCGAACTTGGGTTCTAACCTGTTGCCT (site GCTCGAACTAG)	0.101
GCCCGATCTTGGGTTCTAACCTGTTGCCT (site GCCCAATCTAG)	0.743
GCCCGATCTTGGGTTCTAACCTGTTGCCT (site GCCCCATCTAG)	0.179
GCCCGATCTTGGGTTCTAACCTGTTGCCT (site GCCCGATCTAG)	1.42
GCCCGATCTTGGGTTCTAACCTGTTGCCT (site GCCCTATCTAG)	0.0709
GCCCGGGCTTGGGTTCTAACCTGTTGCGG (site GCCCGGGCTCC)	2.39
GCCCGGGCTTGGGTTCTAACCTGTTGCGG (site GGCCGGGCTCC)	0.022
GCCCTATCTTGGGTTCTAACCTGTTGCCT (site GCCCAATCTAG)	0.0981
GCCCTATCTTGGGTTCTAACCTGTTGCCT (site GCCCCATCTAG)	0.107

Sequence	recombinant barcode read abundance (log10)
GCCCTATCTTGGGTTCTAACCTGTTGCCT (site GCCCGATCTAG)	0.0182
GCCCTATCTTGGGTTCTAACCTGTTGCCT (site GCCCTATCTAG)	1.35
GCCCTGCCTTGGGTTCTAACCTGTTGCGT (site GCCCTGCCTAC)	2.62
GCCCTGCCTTGGGTTCTAACCTGTTGCGT (site TACCTGCCTAC)	0.133
GCCGAAACTTGGGTTCTAACCTGTTGCCT (site GCCGAAACTAG)	0.0181
GCCGAAACTTGGGTTCTAACCTGTTGCCT (site GCCGACACTAG)	0.0951
GCCGAAACTTGGGTTCTAACCTGTTGCCT (site GCCGAGACTAG)	0.052
GCCGAAACTTGGGTTCTAACCTGTTGCCT (site GCCGATACTAG)	0.311
GCCGAGCCTTGGGTTCTAACCTGTTGCCA (site GCCGAGCCTTG)	0.21
GCCGAGCCTTGGGTTCTAACCTGTTGCCA (site TAGTGAACTGT)	0.432
GCCGAGGCTTGGGTTCTAACCTGTTGCTG (site GCCGAGGCTCA)	0.439
GCCGAGGCTTGGGTTCTAACCTGTTGCTG (site GTCTAGGCTCA)	0.326
GCCGAGTCTTGGGTTCTAACCTGTTGCAC (site GCCGAGTCTAG)	0.288
GCCGAGTCTTGGGTTCTAACCTGTTGCAC (site GCCGAGTCTGT)	1.25
GCCGAGTCTTGGGTTCTAACCTGTTGCTA (site GCCGAGTCTAA)	0.0891
GCCGAGTCTTGGGTTCTAACCTGTTGCTA (site GCCGAGTCTCA)	0.357
GCCGAGTCTTGGGTTCTAACCTGTTGCTA (site GCCGAGTCTGA)	0.0866
GCCGAGTCTTGGGTTCTAACCTGTTGCTA (site GCCGAGTCTTA)	0.411
GCCGATACTTGGGTTCTAACCTGTTGCCT (site GCCGAAACTAG)	0
GCCGATACTTGGGTTCTAACCTGTTGCCT (site GCCGACACTAG)	0.171
GCCGATACTTGGGTTCTAACCTGTTGCCT (site GCCGAGACTAG)	0.197
GCCGATACTTGGGTTCTAACCTGTTGCCT (site GCCGATACTAG)	0.113
